Measurements reported in patent publication US12509460B2 (Skyhawk Therapeutics, Inc., priority 2019, dated 2025).
Like-named read-outs stand apart in the source and are kept apart here.

Tests used:
[1] = Quantitative splicing assay (HTT), qPCR; format: cell-based, human; details: Homo sapiens, GM04724, 24 h, GM04724 lymphoblasts, read-out: HTT Splicing: E49-50 EC50
Experimental: Example A9: Quantitative Splicing Assay (HTT)
GM04724 (CAG 70/20) Huntington's disease patient lymphoblasts (Coriell) are plated in 96-well v-bottom plates at 50,000 cells/well. Immediately after plating, cells are dosed with compound for 24 h at concentrations ranging from 2.5 uM to 0.15 nM (0.1% DMSO). Treated cells are lysed and cDNA synthesized using the Fast Advanced Cells-to-Ct kit (Thermofisher A35378) according to the manufacturer's instructions. 2 uL of each cDNA are used in qPCR reactions to confirm the compound-induced inclusion of a cryptic exon within intron 49 of the Huntingtin (HTT) transcripts. The qPCR reactions are prepared in 384-well plates in 10 uL volume, using TagMan™ Fast Advanced Master Mix [ThermoFisher, 4444965] with primers and probes shown in the table below. Reactions are run in a Quant studio 6 qPCR instrument with default settings.

[2] = test system: mHTT protein in GM04724 (CAG 70/20) Huntington's disease patient lymphoblast cells; assay: mHTT protein assay, 2B7-MW1 assay via Mesoscale Discovery (MSD); format: cell-based, human
Outline: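 Signal from the 2B7-MW1 antibody pair on MSD, rising with polyQ length and smaller HTT fragments, measured mHTT after 48 h compound exposure (0.6 nM–10 μM) in GM04724 cells. A parallel replicate plate gave CellTiter Glo viability.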

[3] = test system: SMN FL and SMN Δ7 in spinal muscular atrophy (SMA) patient fibroblasts (GM03813, Coriell); assay: Quantitative splicing assay (SMN), qPCR; format: cell-based, human; details: read-out: SMN2 Splicing FL EC50
Experimental: Spinal muscular atrophy (SMA) patient fibroblasts (GM03813, Coriell) are plated in 96-well plates at 50,000 cells/well. […] Treated cells are lysed and cDNA synthesized using the Fast Advanced Cells-to-Ct kit (Thermofisher A35378) according to the manufacturer's instructions. 2 μL of each cDNA are used in qPCR reactions. […] Reactions are run in a Quant Studio 6 qPCR instrument with default settings.

[4] = test system: SMN protein in spinal muscular atrophy (SMA) patient fibroblasts (GM03813, Coriell); assay: SMN protein assay, Mesoscale Discovery (MSD); format: cell-based, human; details: for EC50: read-out: SMN2 protein EC50
Outline: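 Absolute SMN levels were quantified by MSD against an SMN protein standard curve (1 μg/ml to 19.5 pg/ml) run on each plate. Samples were lysates of GM03813 patient fibroblasts (7000 cells/well) treated 48 hours with compound doses from 2.5 μM down to 0.6 nM.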

MDR1 (P-gp) = assay: Blood-brain-barrier (BBB) penetration potential via MDCK-MDR1 permeability assay; details: dog; for Papp A→B at 120 min, 5 μM: MDCK-MDR1, pH 7.4, MDCK-MDR1: Papp A-B; for Papp B→A at 120 min, 5 μM: MDCK-MDR1, pH 7.4, MDCK-MDR1: Papp B-A
[5] = test system: MDR1-MDCK cell monolayers; assay: as above
MDR1 = assay: as above; details: dog, MDCK-MDR1, pH 7.4, MDCK-MDR1: Efflux
[6] = GM04724 Huntington's disease patient lymphoblasts
[7] = Homo sapiens, Fibroblast, 24 h, SMA patient fibroblasts GM03813, 24 h, qPCR
[8] = SMA patient fibroblasts GM03813, 48 hours, MSD

Row | SMILES | EC50 ([1]; qPCR) [nM] | EC50 [2, 6] [nM] | EC50 [3, 7] [nM] | EC50 [4, 8] [nM] | Papp A→B at 120 min, 5 μM (MDR1 (P-gp); A-B direction) [×10⁻⁶ cm/s] | Papp B→A at 120 min, 5 μM (MDR1 (P-gp); B-A direction) [×10⁻⁶ cm/s] | MDCK-MDR1: % Recov A-B ([5]; A-B direction) [%] | MDCK-MDR1: % Recov B-A ([5]; B-A direction) [%] | efflux ratio at 120 min, 5 μM (MDR1; efflux ratio) | also measured
1 | CN(c1ccc(-c2cc3ncccc3cc2O)nn1)[C@H]1C[C@@H]2CC[C@@H](N2)[C@H]1F [Compound 73B, 7-(6-(((1R,2R,3S,5S)-2-fluoro-8-azabicyclo[3.2.1]octan-3-yl)(methyl)amino)pyridazin-3-yl)quinolin-6-ol] | 0.01 to 15 | 16 to 50 | 0.01 to 15 | 16 to 50 | 3.38 | 55.1 | 72 | 72 | 16 | –
2 | CN(c1ccc(-c2cc3ncccc3cc2O)nn1)[C@@H]1C[C@H]2CC[C@H](N2)[C@@H]1F [Compound 73A, 7-(6-(((1S,2S,3R,5R)-2-fluoro-8-azabicyclo[3.2.1]octan-3-yl)(methyl)amino)pyridazin-3-yl)quinolin-6-ol] | 0.01 to 15 | 0.01 to 15 | 0.01 to 15 | 0.01 to 15 | 2.92 | 61.3 | 76 | 91 | 21 | –
3 | CN(c1ccc(-c2ccc(-c3nnco3)cc2O)nn1)[C@H]1C[C@@H]2CC[C@@H](N2)[C@H]1F [Compound 44B, 2-(6-(((1R,2R,3S,5S)-2-fluoro-8-azabicyclo[3.2.1]octan-3-yl)(methyl)amino)pyridazin-3-yl)-5-(1,3,4-oxadiazol-2-yl)phenol] | 0.01 to 15 | 0.01 to 15 | 0.01 to 15 | 16 to 50 | 8.2 | 54.7 | 91 | 92 | 7 | –
4 | Cc1cc(=O)c2cc(O)c(-c3ccc(N(C)[C@H]4C[C@@H]5CC[C@@H](N5)[C@H]4F)nn3)cc2o1 [Compound 49B, 7-(6-(((1R,2R,3S,5S)-2-fluoro-8-azabicyclo[3.2.1]octan-3-yl)(methyl)amino)pyridazin-3-yl)-6-hydroxy-2-methyl-4H-chromen-4-one] | 0.01 to 15 | 0.01 to 15 | 0.01 to 15 | 0.01 to 15 | 0.86 | 32.9 | 86 | 91 | 38 | –
5 | Cc1cc(=O)c2cc(-c3ccc(N(C)[C@@H]4C[C@H]5CC[C@H](N5)[C@@H]4F)nn3)c(O)cc2o1 [Compound 50A, 6-(6-(((1S,2S,3R,5R)-2-fluoro-8-azabicyclo[3.2.1]octan-3-yl)(methyl)amino)pyridazin-3-yl)-7-hydroxy-2-methyl-4H-chromen-4-one] | 0.01 to 15 | 0.01 to 15 | 16 to 50 | 0.01 to 15 | 2.16 | 68.3 | 85 | 92 | 32 | –
6 | CN(c1ccc(-c2cc(F)c(-c3ccoc(=O)c3)cc2O)nn1)[C@@H]1C[C@H]2CC[C@H](N2)[C@@H]1F [Compound 17A, 4-(2-fluoro-4-(6-(((1S,2S,3R,5R)-2-fluoro-8-azabicyclo[3.2.1]octan-3-yl)(methyl)amino)pyridazin-3-yl)-5-hydroxyphenyl)-2H-pyran-2-one] | 0.01 to 15 | 0.01 to 15 | 0.01 to 15 | 0.01 to 15 | 2.08 | 39.2 | 57 | 81 | 19 | –
7 | CN(c1ccc(-c2cc3cnn(C)c3cc2O)nn1)[C@H]1C[C@@H]2CC[C@@H](N2)[C@H]1F [Compound 76B, 5-(6-(((1R,2R,3S,5S)-2-fluoro-8-azabicyclo[3.2.1]octan-3-yl)(methyl)amino)pyridazin-3-yl)-1-methyl-1H-indazol-6-ol] | 16 to 50 | 0.01 to 15 | 16 to 50 | 0.01 to 15 | 3.97 | 60.3 | 84 | 93 | 15 | –
8 | O=C(c1cc2cc(O)c(-c3ccc(N(C4CC4)[C@H]4C[C@@H]5CC[C@@H](N5)[C@H]4F)nn3)cc2o1)N1CCC1 [Compound 57B, azetidin-1-yl(6-(6-(cyclopropyl((1R,2R,3S,5S)-2-fluoro-8-azabicyclo[3.2.1]octan-3-yl)amino)pyridazin-3-yl)-5-hydroxybenzofuran-2-yl)methanone] | 16 to 50 | 0.01 to 15 | 16 to 50 | 0.01 to 15 | 0.69 | 48.5 | 99 | 95 | 71 | –
9 | CN(c1ccc(-c2cc3ncn(C)c(=O)c3cc2O)nn1)[C@H]1C[C@@H]2CC[C@@H](N2)[C@H]1F [Compound 51B, 7-(6-(((1R,2R,3S,5S)-2-fluoro-8-azabicyclo[3.2.1]octan-3-yl)(methyl)amino)pyridazin-3-yl)-6-hydroxy-3-methylquinazolin-4(3H)-one] | 0.01 to 15 | 0.01 to 15 | 0.01 to 15 | 0.01 to 15 | 0.91 | 50.3 | 88 | 90 | 55 | –
10 | CN(c1ccc(-c2cc3c(=O)n(C)ccc3cc2O)nn1)[C@H]1C[C@@H]2CC[C@H]([C@H]1F)N2C [Compound 98B, 7-(6-(((1R,2R,3S,5S)-2-fluoro-8-methyl-8-azabicyclo[3.2.1]octan-3-yl)(methyl)amino)pyridazin-3-yl)-6-hydroxy-2-methylisoquinolin-1(2H)-one] | – | – | – | – | – | – | – | – | – | EC50 [1]: 16 to 50 nM; EC50 ([2]; GM04724 (CAG 70/20) Huntington's disease patient lymphoblasts): 16 to 50 nM; EC50 ([3]; Homo sapiens, Fibroblast, 24 h, SMA patient fibroblasts (GM03813), 24 h): 16 to 50 nM; EC50 ([4]; SMA patient fibroblasts (GM03813), 48 hours): 16 to 50 nM; Papp A→B at 120 min, 5 μM (MDR1 (P-gp); A-B): 5.01 ×10⁻⁶ cm/s; Papp B→A at 120 min, 5 μM (MDR1 (P-gp); B-A): 52.6 ×10⁻⁶ cm/s; MDCK-MDR1: % Recov A-B ([5]; A-B): 88%; MDCK-MDR1: % Recov B-A ([5]; B-A): 87%; efflux ratio at 120 min, 5 μM (MDR1): 10
11 | COc1cc(-c2ccc(-c3ccc(N(C)[C@H]4CC5N[C@@H](C4)CC5(F)F)nn3)c(O)c2)cnn1 (single isomer, unassigned) [Compound 2B] | 0.01 to 15 | 0.01 to 15 | – | – | – | – | 54 | 84 | – | EC50 ([3]; SMA patient fibroblasts GM03813, 24 h, qPCR): 0.01 to 15 nM; SMN2 protein EC50 [4, 8]: E (501 ≤ E ≤ 10.000); MDCK-MDR1: Papp A-B ([5]; A-B direction): 9.99 10^−6, cm/s; MDCK-MDR1: Papp B-A ([5]; B-A direction): 52.8 10^−6, cm/s; MDCK-MDR1: Efflux ([5]; efflux ratio): 5
12 | Cc1nc2cc(O)c(-c3ccc(N(C)[C@H]4C[C@@H]5CC[C@@H](N5)[C@H]4F)nn3)cc2o1 (single isomer, unassigned) [Compound 40B] | 0.01 to 15 | 0.01 to 15 | 16 to 50 | – | 4.71 | 75.8 | 67 | 99 | 16 | –
